Values of other authors, collected in patent US20120258170A1, “PHARMACEUTICAL CO-CRYSTALS OF QUERCETIN” (Nutracryst Therapeutics Private Limited, priority 2009, published 2012).

Key:
HeLa cells = conditions: Quercetin pretreatment; cited from earlier work
[1] = system: AMP-activated protein kinase (AMPK); conditions: HepG2 cells; cited from earlier work
[2] = molecular target: human lens aldose reductase (Homo sapiens, UniProt P15121); conditions: cited from earlier work
[3] = molecular target: angiotensin-converting enzyme (Homo sapiens, UniProt P12821); conditions: cited from earlier work
[4] = P<0.05; cited from earlier work

Chain of angiotensin-converting enzyme (P12821 30-1306, species assumed): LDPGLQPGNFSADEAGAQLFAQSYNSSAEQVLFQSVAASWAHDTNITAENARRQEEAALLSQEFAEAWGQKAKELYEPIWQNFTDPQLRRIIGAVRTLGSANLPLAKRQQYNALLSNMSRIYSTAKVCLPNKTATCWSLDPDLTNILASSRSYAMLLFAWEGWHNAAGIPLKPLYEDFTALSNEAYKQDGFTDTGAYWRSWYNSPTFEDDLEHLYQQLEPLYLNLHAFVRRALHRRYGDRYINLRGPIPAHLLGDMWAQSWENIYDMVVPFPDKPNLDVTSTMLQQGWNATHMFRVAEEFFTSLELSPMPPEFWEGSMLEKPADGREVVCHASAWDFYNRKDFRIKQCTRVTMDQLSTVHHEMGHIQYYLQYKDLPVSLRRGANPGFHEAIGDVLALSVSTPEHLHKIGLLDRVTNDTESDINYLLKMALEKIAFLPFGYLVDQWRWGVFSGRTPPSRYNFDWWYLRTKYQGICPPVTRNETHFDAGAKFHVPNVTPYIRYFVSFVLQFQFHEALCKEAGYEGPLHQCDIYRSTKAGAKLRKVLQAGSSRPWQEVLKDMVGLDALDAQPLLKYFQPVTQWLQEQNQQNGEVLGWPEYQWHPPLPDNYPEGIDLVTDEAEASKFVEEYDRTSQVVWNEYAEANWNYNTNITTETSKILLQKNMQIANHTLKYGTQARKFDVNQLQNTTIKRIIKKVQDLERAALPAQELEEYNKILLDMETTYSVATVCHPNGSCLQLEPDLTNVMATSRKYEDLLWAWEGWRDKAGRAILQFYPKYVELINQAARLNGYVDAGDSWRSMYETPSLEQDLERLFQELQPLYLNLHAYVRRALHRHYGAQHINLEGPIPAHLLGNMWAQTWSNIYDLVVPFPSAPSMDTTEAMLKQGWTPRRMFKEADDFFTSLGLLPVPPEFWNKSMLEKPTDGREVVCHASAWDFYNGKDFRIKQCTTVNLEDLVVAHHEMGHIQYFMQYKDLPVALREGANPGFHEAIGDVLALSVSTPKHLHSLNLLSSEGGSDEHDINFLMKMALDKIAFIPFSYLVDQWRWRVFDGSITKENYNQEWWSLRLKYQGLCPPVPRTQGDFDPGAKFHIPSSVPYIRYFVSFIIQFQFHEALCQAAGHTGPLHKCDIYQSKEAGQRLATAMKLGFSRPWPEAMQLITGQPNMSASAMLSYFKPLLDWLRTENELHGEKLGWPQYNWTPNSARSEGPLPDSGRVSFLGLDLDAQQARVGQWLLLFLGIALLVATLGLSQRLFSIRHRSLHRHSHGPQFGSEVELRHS

Question: For `O=c1c(O)c(-c2ccc(O)c(O)c2)oc2cc(O)cc(O)c12` [Quercetin], which “cisplatin-induced apoptosis in HeLa cells” value (HeLa cells) is on record?
Answer: Its value is “sensitizes”.

Question: What about the AMPK phosphorylation [1] of the same molecule?
Answer: Its AMPK phosphorylation is “increased”.

Question: What about the “inhibition of human lens aldose reductase” value [2] of the same molecule?
Answer: The value was “strong inhibitor”.

Question: And the “hypotensive effect of bradykinin” value ([3]; pretreatment 88.7 μmol/kg p.o., 45 min, 14.7 μmol/kg i.v., 5 min, bradykinin 10 nmol/kg i.v.)?
Answer: The value was “significantly potentiated”.

Question: What about the “hypertensive response to angiotensin I” value ([3]; same pretreatment, angiotensin I 0.1 nmol/kg iv) of the same molecule?
Answer: Its value is “significantly reduced”.

Question: What about the “mRNA expression of PGC-1alpha and SIRT1, mtDNA and cytochrome C concentration” value [4] of the same molecule?
Answer: Its value is “increased”.

Question: What about the “maximal endurance capacity and voluntary wheel running activity” value [4] of the same molecule?
Answer: Its value is “increase”.
